Measured values from publication PMC7521041 (Current Genomics, 2020).

Target: T1, Alr0765 (Nostoc sp. PCC 7120 = FACHB-418, UniProt A0ACD7RPC9)
T1 sequence (A0ACD7RPC9 1-204): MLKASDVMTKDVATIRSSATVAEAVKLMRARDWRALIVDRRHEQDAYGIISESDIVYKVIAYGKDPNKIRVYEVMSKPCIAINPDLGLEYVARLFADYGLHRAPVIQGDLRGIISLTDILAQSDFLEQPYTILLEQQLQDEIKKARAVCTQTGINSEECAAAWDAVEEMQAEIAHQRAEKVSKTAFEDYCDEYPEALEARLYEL
Experiment: FTIR amide I conformational change
Type: binding
Conditions: 3 mM ligand, 1.3 mM protein, pH 8.0, 25 C

SMILES	FTIR amide I conformational change
Nc1ncnc2c1ncn2[C@@H]1O[C@H](COP(=O)(O)OP(=O)(O)O)[C@@H](O)[C@H]1O [ADP]	Alr0765 binds with adenosyl ligands, which led to conformational changes
Nc1ncnc2c1ncn2[C@@H]1O[C@H](COP(=O)(O)O)[C@@H](O)[C@H]1O [AMP]	Alr0765 binds with adenosyl ligands, which led to conformational changes
NC(=O)C1=CN([C@@H]2O[C@H](COP(=O)(O)OP(=O)(O)OC[C@H]3O[C@@H](n4cnc5c(N)ncnc54)[C@H](O)[C@@H]3O)[C@@H](O)[C@H]2O)C=CC1 [NADH]	Alr0765 binds with adenosyl ligands, which led to conformational changes
